The term IC50 denotes the concentration that inhibits the measured activity by half. Higher therefore signals weaker potency.

The assay deals with 5-hydroxytryptamine receptor 1D (Bos taurus). Kind of assay: Ability to bind to 5-hydroxytryptamine 1D receptor of calf substantia nigra.
`c1ccc2c(c1)CCC(CNCCCNC1=NCCCC1)O2` (stereo not given) yielded an IC50 of 4 nM.
In the case of `c1ccc2c(c1)CC(CNCCCNC1=NCCCN1)O2` (stereo not given) it was 126 nM; in that of `c1cnc(NCCCNCC2CCc3ccccc3O2)nc1` (stereo not given), 1.6 nM; in that of `c1ccc2c(c1)CCC(CNCCCNc1cnccn1)O2` (stereo not given), 10 nM.
In the case of `O=C1CCCN=C(NCCCNCC2CCc3ccccc3O2)N1` (stereo not given) it was 158 nM; in that of `COc1ccc2c(c1)OC(CNCCCNC1=NCCCN1)CC2` (stereo not given), 3.2 nM.
In turn, `Clc1ccc(NCCCNCC2CCc3ccccc3O2)nn1` (stereo not given) returned a concentration for half-maximal inhibition (IC50) of 2 nM.
Consider `c1ccc2c(c1)CCC(CNCCCNc1ccncn1)O2` (stereo not given), for which the IC50 is 10 nM.
In turn, `c1ccc2c(c1)CCC(CNCCCNC1=NCCCN1)C2` (stereo not given) came in with an IC50 of 40 nM.
With `c1ccc2c(c1)CCC(CNCCCNc1nccs1)O2` (stereo not given), the half-inhibitory concentration (IC50) worked out at 7.9 nM.
Regarding `c1ccc2c(c1)CCC(CNCCCNC1=NCCN1)O2` (stereo not given), the midpoint of inhibition, the IC50, lay at 6.3 nM.
`Fc1ccc2c(c1)CCC(CNCCCNC1=NCCCN1)O2` (stereo not given) gave an IC50 of 7.9 nM.
The compound `c1ccc2c(c1)CCC(CNCCCCCNC1=NCCCN1)O2` (stereo not given) displayed an IC50 of 10 nM.
On to `CC(C)NC(=N)NNCCCNCC1CCc2ccccc2O1` (stereo not given), for which the IC50 is 3.2 nM.
In the case of `COc1cccc2c1OC(CNCCCNC1=NCCCN1)CC2` (stereo not given) it was 0.794 nM.

The record behind these values is BindingDB's records for doi:10.1016/0960-894X(95)00473-7 (1995).
